Results taken from patent publication US20240182513A1, “SEPARATION OF METAL IONS FROM A SAMPLE USING GLYCOLIPIDS” (ARIZONA BOARD OF REGENTS ON BEHALF OF THE UNIVERSITY OF …, priority 2021, published 2024).

How the values were obtained:
[1] = Example 2.1 rhamnolipid precipitation, filtration, centrifugation: magnesium; conditions: for Treatment 2: Rhamnolipid and Filtration Cf / Treatment 3: Rhamnolipid and Centrifugation Cc / Treatment 1: Rhamnolipid Only Cr: magnesium concentration after treatment
Experimental: (§1) Structural variants of synthetic glycolipids were used to show the effect of the number and length of the hydrophobic tail(s) on rhamnolipid as a chemical precipitant. […] Solutions (10 mM) were made using nanopure water (≥18 MΩ-cm) then adjusted to a pH of 6.9±0.05 with HNO3 and NaOH. These solutions were made in advance and stored in the cold room for up to one month. They were brought to room temperature before each experiment.
(§2) Three metals were tested for binding with rhamnolipid. Lead as […] (Fisher Scientific, Waltham, MA, 99% purity), was chosen to represent a metal with high rhamnolipid-metal conditional stability constant; lanthanum as La(NO3)3 6(H2O) (Sigma-Aldrich, St. Louis, MO, 99.99% purity) was chosen as a representative REE; and magnesium as Mg(NO3)2 6(H2O) (Sigma-Aldrich, St. Louis, MO, 99% purity) was chosen to represent a metal with a low rhamnolipid-metal conditional stability constant (Hogan et al., 2017). Metal solutions (5 mM) were made using nanopure water (≥18 MΩ-cm) in 20 ml glass scintillation vials. All solutions were used within 15 min to ensure minimal adsorption to the glass vial.
(§3) Three glycolipid-based treatments were evaluated to remove metal from solution: (1) the addition of glycolipid with no further treatment (gravitational precipitation), (2) the addition of a glycolipid followed by filtration or (3) the addition of a glycolipid followed by centrifugation. Each metal (Pb, La, and Mg) was evaluated separately with each of the glycolipid structures. For each experiment, a metal solution was mixed with a glycolipid solution in a 1.7 ml reaction tube at varying molar ratios of glycolipid to metal: 0:1 (glycolipid-free control), 2:1, 5:1, and 10:1. The reactions were mixed in the order of nanopure water (≥18 MΩ-cm), glycolipid solution (10 mM), then metal solution (5 mM). The metal and glycolipid solutions were continuously stirred as they were aliquoted into the reaction tubes. The experiment was performed in triplicate.
(§4) The reaction tubes were mixed overnight (16 to 24 h) and then three samples were collected from each tube to measure the effect of each of the three treatments: a glycolipid only treatment sample, a filtration treatment sample, and a centrifugation treatment sample. Briefly, for the glycolipid only treatment samples all tubes were vortexed for approximately 5 sec immediately before removing 0.1 ml into a dilution tube of 2% trace metal grade nitric acid (12 to 14 ml) to minimize the settling of particles. For the filtration samples each reaction tube was vortexed for 5 sec and then a 0.6 ml aliquot was collected with a 1 ml syringe. A GHP acrodisc disk filter (hydrophilic polypropylene membrane, 0.45 μm pore size, 25 mm disc diameter) from Pall Life Sciences (Port Washington, New York) was then placed onto the end of the syringe and the solution was pushed through the filter. The void space in the disk filter holds approximately 0.5 ml, therefore around 0.1 ml of filtrate was collected into a dilution tube. For the centrifugation sample, the remaining solution was centrifuged at 10,000 RCF for 15 min. Approximately 0.1 ml of the supernatant was aliquoted into a dilution tube. Following collection, all samples were taken for metal analysis using ICP-MS.

[2] = Example 2.1 rhamnolipid precipitation, filtration, centrifugation: lead; conditions: for Treatment 2: Rhamnolipid and Filtration Cf / Treatment 3: Rhamnolipid and Centrifugation Cc / Treatment 1: Rhamnolipid Only Cr: lead concentration after treatment; for Treatment 1: Rhamnolipid Only (Rr) efficiency of removal / Treatment 2: Rhamnolipid and Filtration (Rf) efficiency of removal / Treatment 3: Rhamnolipid and Centrifugation (Rc) efficiency of removal: lead
Experimental: as §1, §2, §3, §4

[3] = Example 2.1 rhamnolipid precipitation, filtration, centrifugation: lanthanum; conditions: for Treatment 2: Rhamnolipid and Filtration Cf / Treatment 3: Rhamnolipid and Centrifugation Cc / Treatment 1: Rhamnolipid Only Cr: lanthanum concentration after treatment; for Treatment 1: Rhamnolipid Only (Rr) efficiency of removal / Treatment 2: Rhamnolipid and Filtration (Rf) efficiency of removal / Treatment 3: Rhamnolipid and Centrifugation (Rc) efficiency of removal: lanthanum
Experimental: as §1, §2, §3, §4

CCCCCCCCCC(CC(=O)O)OC(=O)CC(CCCCCCCCC)OC1O[C@@H](C)[C@H](O)[C@@H](O)[C@H]1O (stereo partly drawn) [Rha C12C12, rhamnosyl-β-hydroxydodecanoyl-62-hydroxydodecanoate]
Treatment 2: Rhamnolipid and Filtration Cf ([1]; molar ratio 2 to 1): 0.182 ± 0.055 mmol/L
Treatment 3: Rhamnolipid and Centrifugation Cc ([1]; molar ratio 2 to 1): 0.276 ± 0.005 mmol/L
Treatment 1: Rhamnolipid Only Cr ([1]; molar ratio 5 to 1): 0.285 ± 0.005 mmol/L
Treatment 2: Rhamnolipid and Filtration Cf ([1]; molar ratio 5 to 1): 0.135 ± 0.074 mmol/L
Treatment 3: Rhamnolipid and Centrifugation Cc ([1]; molar ratio 5 to 1): 0.273 ± 0.014 mmol/L
Treatment 1: Rhamnolipid Only Cr ([1]; molar ratio 10 to 1): 0.285 ± 0.012 mmol/L
Treatment 2: Rhamnolipid and Filtration Cf ([1]; molar ratio 10 to 1): 0.008 ± 0.004 mmol/L
Treatment 3: Rhamnolipid and Centrifugation Cc ([1]; molar ratio 10 to 1): 0.266 ± 0.012 mmol/L
Treatment 1: Rhamnolipid Only Cr ([1]; molar ratio rhamnolipid:magnesium 2 to 1): 0.281 ± 0.002 mmol/L
Treatment 2: Rhamnolipid and Filtration (Rf) efficiency of removal ([1]; magnesium, molar ratio 2 to 1): (32.1%)
Treatment 2: Rhamnolipid and Filtration (Rf) efficiency of removal ([1]; magnesium, molar ratio 5 to 1): (49.4%)
Treatment 2: Rhamnolipid and Filtration (Rf) efficiency of removal ([1]; magnesium, molar ratio 10 to 1): (97.1%)
Treatment 3: Rhamnolipid and Centrifugation (Rc) efficiency of removal ([1]; magnesium, molar ratio 10 to 1): (0.4%)
Treatment 2: Rhamnolipid and Filtration Cf ([2]; molar ratio 2 to 1): 0.069 ± 0.018 mmol/L
Treatment 3: Rhamnolipid and Centrifugation Cc ([2]; molar ratio 2 to 1): 0.146 ± 0.008 mmol/L
Treatment 1: Rhamnolipid Only Cr ([2]; molar ratio 5 to 1): 0.204 ± 0.004 mmol/L
Treatment 2: Rhamnolipid and Filtration Cf ([2]; molar ratio 5 to 1): 0.049 ± 0.021 mmol/L
Treatment 3: Rhamnolipid and Centrifugation Cc ([2]; molar ratio 5 to 1): 0.047 ± 0.003 mmol/L
Treatment 1: Rhamnolipid Only Cr ([2]; molar ratio 10 to 1): 0.249 ± 0.10 mmol/L
Treatment 2: Rhamnolipid and Filtration Cf ([2]; molar ratio 10 to 1): 0.059 ± 0.028 mmol/L
Treatment 3: Rhamnolipid and Centrifugation Cc ([2]; molar ratio 10 to 1): 0.129 ± 0.002 mmol/L
Treatment 1: Rhamnolipid Only Cr ([2]; molar ratio rhamnolipid:lead 2 to 1): 0.211 ± 0.010 mmol/L
Treatment 1: Rhamnolipid Only (Rr) efficiency of removal ([2]; molar ratio 2 to 1): (22.4%)
Treatment 2: Rhamnolipid and Filtration (Rf) efficiency of removal ([2]; molar ratio 2 to 1): (74.8%)
Treatment 3: Rhamnolipid and Centrifugation (Rc) efficiency of removal ([2]; molar ratio 2 to 1): (46.4%)
Treatment 1: Rhamnolipid Only (Rr) efficiency of removal ([2]; molar ratio 5 to 1): (25.0%)
Treatment 2: Rhamnolipid and Filtration (Rf) efficiency of removal ([2]; molar ratio 5 to 1): (81.8%)
Treatment 3: Rhamnolipid and Centrifugation (Rc) efficiency of removal ([2]; molar ratio 5 to 1): (82.8%)
Treatment 1: Rhamnolipid Only (Rr) efficiency of removal ([2]; molar ratio 10 to 1): (8.6%)
Treatment 2: Rhamnolipid and Filtration (Rf) efficiency of removal ([2]; molar ratio 10 to 1): (78.3%)
Treatment 3: Rhamnolipid and Centrifugation (Rc) efficiency of removal ([2]; molar ratio 10 to 1): (52.8%)
Treatment 2: Rhamnolipid and Filtration Cf ([3]; molar ratio 2 to 1): 0.119 ± 0.007 mmol/L
Treatment 3: Rhamnolipid and Centrifugation Cc ([3]; molar ratio 2 to 1): 0.164 ± 0.013 mmol/L
Treatment 1: Rhamnolipid Only Cr ([3]; molar ratio 5 to 1): 0.197 ± 0.006 mmol/L
Treatment 2: Rhamnolipid and Filtration Cf ([3]; molar ratio 5 to 1): 0.044 ± 0.009 mmol/L
Treatment 3: Rhamnolipid and Centrifugation Cc ([3]; molar ratio 5 to 1): 0.074 ± 0.003 mmol/L
Treatment 1: Rhamnolipid Only Cr ([3]; molar ratio 10 to 1): 0.263 ± 0.007 mmol/L
Treatment 2: Rhamnolipid and Filtration Cf ([3]; molar ratio 10 to 1): 0.035 ± 0.001 mmol/L
Treatment 3: Rhamnolipid and Centrifugation Cc ([3]; molar ratio 10 to 1): 0.057 ± 0.004 mmol/L
Treatment 1: Rhamnolipid Only Cr ([3]; molar ratio rhamnolipid:lanthanum 2 to 1): 0.184 ± 0.014 mmol/L
Treatment 1: Rhamnolipid Only (Rr) efficiency of removal ([3]; molar ratio 2 to 1): (31.5%)
Treatment 2: Rhamnolipid and Filtration (Rf) efficiency of removal ([3]; molar ratio 2 to 1): (55.7%)
Treatment 3: Rhamnolipid and Centrifugation (Rc) efficiency of removal ([3]; molar ratio 2 to 1): (38.7%)
Treatment 1: Rhamnolipid Only (Rr) efficiency of removal ([3]; molar ratio 5 to 1): (26.4%)
Treatment 2: Rhamnolipid and Filtration (Rf) efficiency of removal ([3]; molar ratio 5 to 1): (83.7%)
Treatment 3: Rhamnolipid and Centrifugation (Rc) efficiency of removal ([3]; molar ratio 5 to 1): (72.4%)
Treatment 1: Rhamnolipid Only (Rr) efficiency of removal ([3]; molar ratio 10 to 1): (2.0%)
Treatment 2: Rhamnolipid and Filtration (Rf) efficiency of removal ([3]; molar ratio 10 to 1): (86.9%)
Treatment 3: Rhamnolipid and Centrifugation (Rc) efficiency of removal ([3]; molar ratio 10 to 1): (78.7%)
